Data published in ChEMBL document CHEMBL2074438, “Influence of omeprazole on multidrug resistance protein 3 expression in human liver” (J Pharmacol Exp Ther, 2003).

What was measured:
[1] = target: Multidrug resistance associated protein (Homo sapiens) (UniProt Q96QA9); test: TP_TRANSPORTER: RT-PCR in HepG2 cells; format: functional, cell-based
[2] = target: Multidrug resistance associated protein (Homo sapiens) (UniProt Q96QA9); test: TP_TRANSPORTER: Western blot, HepG2 cells; format: functional, cell-based

Multidrug resistance associated protein (Homo sapiens), sequence (Q96QA9 as listed by the source): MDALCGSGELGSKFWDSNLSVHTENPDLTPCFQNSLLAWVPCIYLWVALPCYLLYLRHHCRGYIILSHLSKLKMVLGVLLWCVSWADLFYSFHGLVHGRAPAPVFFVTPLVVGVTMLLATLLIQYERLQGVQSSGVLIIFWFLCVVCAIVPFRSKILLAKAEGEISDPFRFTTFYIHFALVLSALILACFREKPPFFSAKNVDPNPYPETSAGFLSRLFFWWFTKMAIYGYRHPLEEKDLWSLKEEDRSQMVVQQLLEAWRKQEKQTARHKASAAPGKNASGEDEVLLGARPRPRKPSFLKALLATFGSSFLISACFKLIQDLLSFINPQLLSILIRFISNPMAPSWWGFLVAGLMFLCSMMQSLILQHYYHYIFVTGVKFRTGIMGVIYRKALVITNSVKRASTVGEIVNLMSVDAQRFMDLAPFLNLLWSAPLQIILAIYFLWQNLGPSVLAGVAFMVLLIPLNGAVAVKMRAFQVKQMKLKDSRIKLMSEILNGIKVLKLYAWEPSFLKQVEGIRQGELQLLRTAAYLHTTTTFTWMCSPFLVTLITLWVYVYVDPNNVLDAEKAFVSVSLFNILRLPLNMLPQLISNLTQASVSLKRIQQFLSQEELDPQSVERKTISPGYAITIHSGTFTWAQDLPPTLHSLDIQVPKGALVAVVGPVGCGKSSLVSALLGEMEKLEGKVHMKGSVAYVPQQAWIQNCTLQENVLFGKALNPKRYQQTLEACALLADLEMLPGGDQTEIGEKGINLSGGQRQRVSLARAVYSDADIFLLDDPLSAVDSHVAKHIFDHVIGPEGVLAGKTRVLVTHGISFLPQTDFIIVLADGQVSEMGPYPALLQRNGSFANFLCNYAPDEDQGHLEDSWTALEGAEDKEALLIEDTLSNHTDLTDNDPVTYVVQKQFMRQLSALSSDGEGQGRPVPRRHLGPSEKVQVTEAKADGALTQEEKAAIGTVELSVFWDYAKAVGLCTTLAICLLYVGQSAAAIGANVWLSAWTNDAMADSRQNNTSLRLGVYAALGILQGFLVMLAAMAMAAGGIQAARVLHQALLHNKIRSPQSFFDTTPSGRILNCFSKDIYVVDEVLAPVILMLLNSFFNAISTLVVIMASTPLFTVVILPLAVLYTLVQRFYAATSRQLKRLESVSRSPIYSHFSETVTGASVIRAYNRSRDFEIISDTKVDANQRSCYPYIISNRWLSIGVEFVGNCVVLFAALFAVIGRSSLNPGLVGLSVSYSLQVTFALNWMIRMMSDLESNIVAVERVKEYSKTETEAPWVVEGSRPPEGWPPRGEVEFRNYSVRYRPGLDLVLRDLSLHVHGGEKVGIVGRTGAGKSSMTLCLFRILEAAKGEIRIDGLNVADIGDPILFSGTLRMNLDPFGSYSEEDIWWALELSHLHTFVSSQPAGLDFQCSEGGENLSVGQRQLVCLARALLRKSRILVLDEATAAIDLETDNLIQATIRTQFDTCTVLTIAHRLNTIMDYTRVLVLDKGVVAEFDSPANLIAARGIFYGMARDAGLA

COc1ccc2[nH]c([S+]([O-])Cc3ncc(C)c(OC)c3C)nc2c1 (centres undefined)
Activity [1]: inducer []
Activity [2]: inducer []

O=c1cc(-c2ccccc2)oc2ccc3ccccc3c12
Activity [1]: inducer []
Activity [2]: inducer []
